Read-outs that look alike come from different tables or passages of the source. One block for each molecule: values may come before it. Non-standard residues stand in square brackets, D forms with d. Residues, ends and D or L forms follow the SMILES beside them. *: point of attachment. NMeW = CN[C@@H](Cc1c[nH]c2ccccc12)C(=O)O; 2Nal = N[C@@H](Cc1ccc2ccccc2c1)C(=O)O; Cya = N[C@@H](CS(=O)(=O)O)C(=O)O; NMeF = CN[C@@H](Cc1ccccc1)C(=O)O; NMeI = CC[C@H](C)[C@H](NC)C(=O)O; NMeE = CN[C@@H](CCC(=O)O)C(=O)O; NMeA = CN[C@@H](C)C(=O)O; Bn = c1ccc(C*)cc1; Sar = CNCC(=O)O
Target: Sushi domains (SD1/2) protein
Test: Fluorescence polarization (FP) competition assay with AJAP-1probe, calculated Ki
Format: binding
In short: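 Competition against 25 nM TAMRA-labelled peptide probe binding SD1/2, in PBS pH 7.4 with 1% BSA at rt, read at 530/580 nm. IC50 from sigmoidal dose-response fits, at least triplicate; Ki calculated from IC50 using probe Kd from saturation binding.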

[1] = Table 16, ncAAs incorporated peptides, read-out: Ki (nM) mean ± SEM
[2] = Table 11, deep mutational scanning validation variants of AJAP-1WT, read-out: Ki (nM) mean ± SEM
[3] = Table 8, Ala-, D-amino acids and N-methylation scans of AJAP-1WT, read-out: Ki (nM) mean ± SEM
[4] = Table 8, in μM, read-out: Ki (nM) mean ± SEM

SMILES: CC(=O)N[C@@H](CCC(=O)O)C(=O)N[C@@H](CC(=O)O)C(=O)N[C@@H](CC(=O)O)C(=O)N[C@@H](CO)C(=O)N[C@@H](CC(=O)O)C(=O)N[C@H](C(=O)N[C@@H](Cc1c[nH]c2ccccc12)C(=O)N[C@@H](Cc1ccc2ccccc2c1)C(=O)NCC(=O)NCC(=O)N[C@@H](C)C(=O)N[C@@H](CC(=O)O)C(=O)N[C@H](C(=O)N[C@@H](CC(=O)O)C(N)=O)[C@@H](C)O)C(C)C [EDDSDVW(2Nala)GGADTD] (Ac-EDDSDVW[2Nal]GGADTD-NH2)
Ki [1]: 814 ± 10 nM

SMILES: CC(=O)N[C@@H](CCC(=O)O)C(=O)N[C@@H](CC(=O)O)C(=O)N[C@@H](CC(=O)O)C(=O)N[C@@H](CO)C(=O)N[C@@H](CC(=O)O)C(=O)N[C@H](C(=O)N[C@@H](Cc1c[nH]c2ccccc12)C(=O)N(C)[C@@H](Cc1c[nH]c2ccccc12)C(=O)NCC(=O)NCC(=O)N[C@@H](C)C(=O)N[C@@H](CC(=O)O)C(=O)N[C@H](C(=O)N[C@@H](CC(=O)O)C(N)=O)[C@@H](C)O)C(C)C [EDDSDVW(N-Me-W)GGADTD] (Ac-EDDSDVW[NMeW]GGADTD-NH2)
Ki (Table 7, Ala-, D-amino acids and N-methylation scans of APPWT, read-out: Ki (nM) mean ± SEM): 1380 ± 16 nM

SMILES: CC(=O)N[C@@H](CCC(=O)O)C(=O)N[C@@H](CC(=O)O)C(=O)N[C@@H](CC(=O)O)C(=O)N[C@@H](CO)C(=O)N[C@@H](CC(=O)O)C(=O)N[C@H](C(=O)N[C@@H](Cc1c[nH]c2ccccc12)C(=O)N[C@@H](Cc1ccc(OCc2ccccc2)cc1)C(=O)NCC(=O)NCC(=O)N[C@@H](C)C(=O)N[C@@H](CC(=O)O)C(=O)N[C@H](C(=O)N[C@@H](CC(=O)O)C(N)=O)[C@@H](C)O)C(C)C [EDDSDVW(Obtyr)GGADTD] (Ac-EDDSDVWY(Bn)GGADTD-NH2)
Ki [1]: 3860 ± 62 nM

SMILES: CC(=O)N[C@@H](CCC(=O)O)C(=O)N[C@@H](CC(=O)O)C(=O)N[C@@H](CC(=O)O)C(=O)N[C@@H](CO)C(=O)N[C@@H](CC(=O)O)C(=O)N[C@H](C(=O)N[C@@H](Cc1c[nH]c2ccccc12)C(=O)N[C@@H](Cc1c[nH]c2ccccc12)C(=O)NCC(=O)NCC(=O)N[C@@H](C)C(=O)N[C@@H](CC(=O)O)C(=O)N[C@@H](CCC(=O)O)C(=O)N[C@@H](CC(=O)O)C(N)=O)C(C)C [EDDSDVWWGGADED] (Ac-EDDSDVWWGGADED-NH2)
Ki (Table 10, deep mutational scanning validation variants of APPWT, read-out: Ki (nM) mean ± SEM): 337 ± 10 nM

SMILES: CC[C@H](C)[C@H](NC(=O)[C@H](Cc1ccccc1)NC(=O)[C@H](CCC(=O)O)NC(C)=O)C(=O)N[C@@H](C)C(=O)N[C@@H](Cc1c[nH]c2ccccc12)C(=O)NCC(=O)N1CCC[C@H]1C(=O)N[C@H](C(=O)NCC(=O)N[C@@H](CC(=O)O)C(=O)N[C@@H](CCC(=O)O)C(=O)N[C@@H](CC(=O)O)C(N)=O)[C@@H](C)O [EFIAWGPTGDED] (Ac-EFIAWGPTGDED-NH2)
Ki (Table 5, elongation and truncation scan of AJAP-1 binding epitope, read-out: Ki (nM) mean ± SEM): 112 ± 1 nM

SMILES: CC[C@H](C)[C@H](NC(=O)[C@H](Cc1ccccc1)NC(=O)[C@H](CCC(=O)O)NC(=O)[C@@H](NC(=O)[C@H](CCC(=O)O)NC(C)=O)[C@@H](C)CC)C(=O)N[C@@H](C)C(=O)N[C@@H](Cc1c[nH]c2ccccc12)C(=O)NCC(=O)N1CCC[C@H]1C(=O)N[C@H](C(=O)NCC(=O)N[C@@H](CC(=O)O)C(=O)N[C@@H](CCC(=O)O)C(=O)N[C@@H](CC(=O)O)C(N)=O)[C@@H](C)O [EIEFIAWGPTGDED]
Ki [2]: 22 ± 1 nM

SMILES: CC[C@H](C)[C@H](NC(=O)[C@H](Cc1ccccc1)NC(=O)[C@H](CCC(=O)O)N(C)C(=O)[C@@H](NC(=O)[C@H](CCC(=O)O)NC(C)=O)[C@@H](C)O)C(=O)N[C@@H](C)C(=O)N[C@@H](Cc1c[nH]c2ccccc12)C(=O)NCC(=O)N1CCC[C@H]1C(=O)N[C@H](C(=O)NCC(=O)N[C@@H](CC(=O)O)C(=O)N[C@@H](CCC(=O)O)C(=O)N[C@@H](CC(=O)O)C(N)=O)[C@@H](C)O [ET(N-Me-E)FIAWGPTGDED] (Ac-ET[NMeE]FIAWGPTGDED-NH2)
Ki [3]: 159 ± 3 nM

SMILES: CC[C@H](C)[C@H](NC(=O)[C@H](Cc1ccccc1)NC(=O)[C@H](C)NC(=O)[C@@H](NC(=O)[C@H](CCC(=O)O)NC(C)=O)[C@@H](C)O)C(=O)N[C@@H](C)C(=O)N[C@@H](Cc1c[nH]c2ccccc12)C(=O)NCC(=O)N1CCC[C@H]1C(=O)N[C@H](C(=O)NCC(=O)N[C@@H](CC(=O)O)C(=O)N[C@@H](CCC(=O)O)C(=O)N[C@@H](CC(=O)O)C(N)=O)[C@@H](C)O [ETAFIAWGPTGDED] (Ac-ETAFIAWGPTGDED-NH2)
Ki [3]: 49 ± 2 nM

SMILES: CC[C@H](C)[C@H](NC(=O)[C@H](Cc1ccccc1)NC(=O)[C@H](CC(=O)O)NC(=O)[C@@H](NC(=O)[C@H](CCC(=O)O)NC(C)=O)[C@@H](C)O)C(=O)N[C@@H](C)C(=O)N[C@@H](Cc1c[nH]c2ccccc12)C(=O)NCC(=O)N1CCC[C@H]1C(=O)N[C@H](C(=O)NCC(=O)N[C@@H](CC(=O)O)C(=O)N[C@@H](CCC(=O)O)C(=O)N[C@@H](CC(=O)O)C(N)=O)[C@@H](C)O [ETDFIAWGPTGDED] (Ac-ETDFIAWGPTGDED-NH2)
Ki [2]: 26 ± 1 nM

SMILES: CC[C@H](C)[C@H](NC(=O)[C@H](Cc1ccccc1)N(C)C(=O)[C@H](CCC(=O)O)NC(=O)[C@@H](NC(=O)[C@H](CCC(=O)O)NC(C)=O)[C@@H](C)O)C(=O)N[C@@H](C)C(=O)N[C@@H](Cc1c[nH]c2ccccc12)C(=O)NCC(=O)N1CCC[C@H]1C(=O)N[C@H](C(=O)NCC(=O)N[C@@H](CC(=O)O)C(=O)N[C@@H](CCC(=O)O)C(=O)N[C@@H](CC(=O)O)C(N)=O)[C@@H](C)O [ETE(N-Me-F)IAWGPTGDED] (Ac-ETE[NMeF]IAWGPTGDED-NH2)
Ki [3]: 252 ± 5 nM

SMILES: CC[C@H](C)[C@H](NC(=O)[C@H](C)NC(=O)[C@H](CCC(=O)O)NC(=O)[C@@H](NC(=O)[C@H](CCC(=O)O)NC(C)=O)[C@@H](C)O)C(=O)N[C@@H](C)C(=O)N[C@@H](Cc1c[nH]c2ccccc12)C(=O)NCC(=O)N1CCC[C@H]1C(=O)N[C@H](C(=O)NCC(=O)N[C@@H](CC(=O)O)C(=O)N[C@@H](CCC(=O)O)C(=O)N[C@@H](CC(=O)O)C(N)=O)[C@@H](C)O [ETEAIAWGPTGDED] (Ac-ETEAIAWGPTGDED-NH2)
Ki [3]: 688 ± 11 nM

SMILES: CC[C@H](C)[C@@H](C(=O)N[C@@H](C)C(=O)N[C@@H](Cc1c[nH]c2ccccc12)C(=O)NCC(=O)N1CCC[C@H]1C(=O)N[C@H](C(=O)NCC(=O)N[C@@H](CC(=O)O)C(=O)N[C@@H](CCC(=O)O)C(=O)N[C@@H](CC(=O)O)C(N)=O)[C@@H](C)O)N(C)C(=O)[C@H](Cc1ccccc1)NC(=O)[C@H](CCC(=O)O)NC(=O)[C@@H](NC(=O)[C@H](CCC(=O)O)NC(C)=O)[C@@H](C)O [ETEF(N-Me-I)AWGPTGDED] (Ac-ETEF[NMeI]AWGPTGDED-NH2)
Ki [3]: 33 ± 1 nM

SMILES: CC(=O)N[C@@H](CCC(=O)O)C(=O)N[C@H](C(=O)N[C@@H](CCC(=O)O)C(=O)N[C@@H](Cc1ccccc1)C(=O)N[C@@H](C)C(=O)N[C@@H](C)C(=O)N[C@@H](Cc1c[nH]c2ccccc12)C(=O)NCC(=O)N1CCC[C@H]1C(=O)N[C@H](C(=O)NCC(=O)N[C@@H](CC(=O)O)C(=O)N[C@@H](CCC(=O)O)C(=O)N[C@@H](CC(=O)O)C(N)=O)[C@@H](C)O)[C@@H](C)O [ETEFAAWGPTGDED] (Ac-ETEFAAWGPTGDED-NH2)
Ki [4]: > 6250 nM

Continued, values first:

Ki [1]: 12 ± 0.3 nM
Ki (purified peptides, read-out: Ki): 11.8 nM
SMILES: CC[C@H](C)[C@H](NC(=O)[C@H](Cc1ccccc1)NC(=O)[C@H](CCC(=O)O)NC(=O)[C@@H](NC(=O)[C@H](CCC(=O)O)NC(C)=O)[C@@H](C)O)C(=O)N[C@@H](CS(=O)(=O)O)C(=O)N[C@@H](Cc1c[nH]c2ccccc12)C(=O)NCC(=O)N1CCC[C@H]1C(=O)N[C@H](C(=O)NCC(=O)N[C@@H](CC(=O)O)C(=O)N[C@@H](CCC(=O)O)C(=O)N[C@@H](CC(=O)O)C(N)=O)[C@@H](C)O [ETEFI(Cya)WGPTGDED, Ac-ETEFI(Cya)WGPTGDED-NH2] (Ac-ETEFI[Cya]WGPTGDED-NH2)

Ki [4]: > 6250 nM
SMILES: CC[C@H](C)[C@H](NC(=O)[C@H](Cc1ccccc1)NC(=O)[C@H](CCC(=O)O)NC(=O)[C@@H](NC(=O)[C@H](CCC(=O)O)NC(C)=O)[C@@H](C)O)C(=O)N(C)[C@@H](C)C(=O)N[C@@H](Cc1c[nH]c2ccccc12)C(=O)NCC(=O)N1CCC[C@H]1C(=O)N[C@H](C(=O)NCC(=O)N[C@@H](CC(=O)O)C(=O)N[C@@H](CCC(=O)O)C(=O)N[C@@H](CC(=O)O)C(N)=O)[C@@H](C)O [ETEFI(N-Me-A)WGPTGDED] (Ac-ETEFI[NMeA]WGPTGDED-NH2)

Ki [3]: 46 ± 2 nM
SMILES: CC[C@H](C)[C@H](NC(=O)[C@H](Cc1ccccc1)NC(=O)[C@H](CCC(=O)O)NC(=O)[C@@H](NC(=O)[C@H](CCC(=O)O)NC(C)=O)[C@@H](C)O)C(=O)N[C@@H](C)C(=O)N(C)[C@@H](Cc1c[nH]c2ccccc12)C(=O)NCC(=O)N1CCC[C@H]1C(=O)N[C@H](C(=O)NCC(=O)N[C@@H](CC(=O)O)C(=O)N[C@@H](CCC(=O)O)C(=O)N[C@@H](CC(=O)O)C(N)=O)[C@@H](C)O [ETEFIA(N-Me-W)GPTGDED] (Ac-ETEFIA[NMeW]GPTGDED-NH2)

Ki [4]: > 6250 nM
SMILES: CC[C@H](C)[C@H](NC(=O)[C@H](Cc1ccccc1)NC(=O)[C@H](CCC(=O)O)NC(=O)[C@@H](NC(=O)[C@H](CCC(=O)O)NC(C)=O)[C@@H](C)O)C(=O)N[C@@H](C)C(=O)N[C@@H](C)C(=O)NCC(=O)N1CCC[C@H]1C(=O)N[C@H](C(=O)NCC(=O)N[C@@H](CC(=O)O)C(=O)N[C@@H](CCC(=O)O)C(=O)N[C@@H](CC(=O)O)C(N)=O)[C@@H](C)O [ETEFIAAGPTGDED] (Ac-ETEFIAAGPTGDED-NH2)

Ki [4]: > 6250 nM
SMILES: CC[C@H](C)[C@H](NC(=O)[C@H](Cc1ccccc1)NC(=O)[C@H](CCC(=O)O)NC(=O)[C@@H](NC(=O)[C@H](CCC(=O)O)NC(C)=O)[C@@H](C)O)C(=O)N[C@@H](C)C(=O)N[C@@H](Cc1c[nH]c2ccccc12)C(=O)N(C)CC(=O)N1CCC[C@H]1C(=O)N[C@H](C(=O)NCC(=O)N[C@@H](CC(=O)O)C(=O)N[C@@H](CCC(=O)O)C(=O)N[C@@H](CC(=O)O)C(N)=O)[C@@H](C)O [ETEFIAW(N-Me-G)PTGDED] (Ac-ETEFIAW[Sar]PTGDED-NH2)
